The record followed here is EP0478631B1, “TARGETTING AGENTS” (CANCER RESEARCH CAMPAIGN TECHNOLOGY LTD., priority 1989, dated 1991).

The experiment has as its target Cloudman S91. In words: Tyrosinase activity in vitro (release of tritiated water from 3,5-3H-tyrosine). The experiment is classed as cell-based. As to conditions: molar concentration giving a response equal to half the maximum; tyrosinase activity relative to melanotropin-free control; Cloudman S91 monolayers, 24 h + further 24 h with 3,5-³H-tyrosine; read-out: EC₅₀. As to the method:
Cloudman S91 were grown in monolayers to a density of approximately 25,000 cells cm⁻² in 25cm² culture flasks using 4 ml Ham's F10 medium supplemented with 10% heat inactivated foetal calf serum. The medium was replaced and 10⁻⁵ and 10⁻⁹ molar concentrations of the test or control compound added. After 24 h, medium and melantropins were renewed and 1»Ci, 3,5-³H-tyrosine included. The final specific activity of 3,5-³H-tyrosine incubation medium was 0.1 Ci/mmol.
After a further 24h, 0.2ml of the medium from each incubation were transferred to centrifuge tubes containing 1ml activated charcoal suspension (100 mg/ml in 0.1M citric acid). The tubes were vortexed and centrifuged at 700 x g for 5 min. Aliquots (0.5 ml) of each supernatant were transferred to scintillation vials and counted on a Packard Tri-Carb 300D scintillation counter. Aliquots (0.1ml) of the unextracted medium were also counted. Finally, the remaining medium was removed and the cell monolayer suspended in 1ml isotonic trypsin/EDTA. The dispersed cells were counted in a Coulter counter.
The amount of water generated from the tyrosine per 10⁵ cells was calculated and the results divided by the value obtained from the melanotropin-free control. The activities of the melanotropins were expressed as the molar concentrations required to give responses equal to half the maximum (EC₅₀) and are recorded in Table 1.

With “alpha-melanocyte stimulating hormone [MSH]”, the EC50 was determined as 2.81 nM. As to `CCCC[C@H](NC(C)=O)C(=O)N[C@@H](CC(=O)O)C(=O)N[C@@H](Cc1c[nH]cn1)C(=O)N[C@H](Cc1ccccc1)C(=O)N[C@@H](CCCNC(=N)N)C(=O)N[C@@H](Cc1c[nH]c2ccccc12)C(=O)N[C@@H](CCCCN)C(N)=O` [MSH(4-10), Ac-[Nle⁴, Asp⁵, D-Phe⁷, Lys¹⁰] α-MSH₄₋₁₀-NH₂], the EC50 was found to be 0.74 nM.
